Source: patent US10214564B2, “Antimicrobial peptides derived from hepatitis B virus core protein arginine-rich domain” (priority 2013, dated 2019)
Read-outs that look alike come from different tables or passages of the source. Where no end group is shown, it is not given here.

Experiments:
[1] = system: tested bacteria and fungi; type: cell-based; conditions: for bacteria; serine-phosphorylated peptides
Experimental: (§1) The antimicrobial activities of HBc ARD peptides were tested on numerous bacterial strains from ATCC, including Pseudomonas aeruginosa Migula strain (ATCC 27853, ampicillin-resistant), Pseudomonas aeruginosa Migula strain (ATCC 9027, ampicillin-resistant), Klebsiella pneumoniae strain (ATCC 17593), Escherichia coli strain (ATCC 25922), Staphylococcus aureus subsp. strain (ATCC 25923, methicillin-resistant), Staphylococcus aureus subsp. strain (ATCC29213, methicillin-resistant), Staphylococcus aureus subsp. strain (ATCC 19636, methicillinresistant), and Candida albicans strain (ATCC 10231).
(§2) All peptides were purchased from Yao-Hong Biotechnology Inc. (Taipei, Taiwan). Vendors provided data of peptide characterizations, including HPLC and Mass. Antimicrobial activity was determined as described with some modifications as detailed below. Bacteria were grown overnight in Mueller-Hinton broth (Difeo) at 37° C., and during the mid-logarithmic phase, bacteria were diluted to 10^6 CFU (colony formation unit)/ml in phosphate buffer (10 mM sodium phosphate and 50 mM sodium chloride, pH 7.2). Peptides were serially diluted in the same buffer. Fifty microliter (μl) of bacteria was mixed with fifty μl of peptides at varying concentrations followed by incubation at 37° C. for 3 hours without shaking. […]

[2] = system: Huh7, HepG2, Vero and HEK293 cells; test: Cytotoxicity, MTT assay; type: cell-based, human, monkey; conditions: for effect on cell viability: 0 to 100 μM, 1 hour at 37° C.
Experimental: (§3) (A) Hemolytic activities of HBc147-183 and melittin were measured with 10% human red blood cells (RBC). […] (B) Huh7, HepG2, Vero and HEK293 cells were incubated with varying concentrations (0 to 100 μM) of HBc147-183 and melittin for 1 hour at 37° C. The effects on cell viability were determined by MTT assay. Melittin was used as a positive control. […] (C) Kidney cells, Vero and HEK293 were stained with CFSE and seeded at day 0. At day 1, cells were incubated with varying concentrations (0 to 100 μM) of HBc147-183 for 1 hour. Cell proliferation at day 1 and day 3 were determined by flow cytometry. […] Samples assayed in FIGS. 7A-C were measured in triplicates. (D) (D) In vivo toxicity of ARD peptide HBc147-183 was determined using three-week old male ICR mice. The mice were injected intraperitoneally with peptide (10 and 20 mg/kg of body weight).
Cytotoxicity was measured in HepG2, Huh7, HEK293, and Vero cells by MTT assay. Cells were seeded at 10^4 cells/well in a 96-well plate and serial dilutions of peptides were added into each well. PBS was used as a negative control and melittin was used as a positive control. After 1 hour of incubation, the medium were replaced by a fresh medium containing 10% MTT solution (PROMEGA™), and the plate was incubated for 4 hours in 5% CO2 at 37° C., The absorbance at the wavelength a 595 nm was measured by an ELISA reader (BIO-RAD™ model 680).

human red blood cells = test: Hemolytic activity; type: cell-based; conditions: 10% hRBCs, one hour of incubation
Experimental: as §3
The hemolytic activities of peptides were determined by hemolysis against human red blood cells (hRBCs). Human blood was obtained in EDTA-containing tube and was centrifuged at 450 g for 10 min. […] After centrifugation at 450 g for 10 min, the percentage of hemolysis was determined by measuring the absorbance at the wavelength of 405 nm of the supernatant. Blank and 100% hemolysis were determined in PBS buffer and in the presence of 1% Triton X-100, respectively.

E. coli = type: cell-based, Escherichia coli; conditions: for Minimal bactericidal concentration: E. coli ATCC 25922
Experimental: as §1
(§4) All peptides were purchased from Yao-Hong Biotechnology Inc. (Taipei, Taiwan). Vendors provided data of peptide characterizations, including HPLC and Mass. Antimicrobial activity was determined as described with some modifications as detailed below. Bacteria were grown overnight in Mueller-Hinton broth (Difeo) at 37° C., and during the mid-logarithmic phase, bacteria were diluted to 10^6 CFU (colony formation unit)/ml in phosphate buffer (10 mM sodium phosphate and 50 mM sodium chloride, pH 7.2). Peptides were serially diluted in the same buffer. Fifty microliter (μl) of bacteria was mixed with fifty μl of peptides at varying concentrations followed by incubation at 37° C. for 3 hours without shaking. At the end of incubation, bacteria were placed on Mueller-Hinton broth agar plates, and allowed growth at 37° C. overnight for measurement of minimal bactericidal concentration (MBC). […] All peptides were tested in triplicate.

S. aureus = type: cell-based, Staphylococcus aureus; conditions: for Minimal bactericidal concentration: S. aureus ATCC 19636
Experimental: as §1, §4

ICR mice = test: In vivo acute toxicity
Experimental: as §3
Three-week old male ICR mice (19 to 21 g) were purchased from BioLASCO (Taiwan) Overnight culture of bacteria in BHI broth (Difco) was subcultured in fresh BRI broth to log phase. Inoculums were diluted in BHI broth to indicated densities. To test the acute toxicity of ARD peptide in vivo, ICR male mice were inoculated intraperitoncally (i.p.) with 10 and 20 mg/kg HBc147-183 in PBS, respectively. […] After peptide injection, the number of dead mice was recorded daily for 7 days post-injection. […] Mortality was monitored daily for 7 days post-inoculation. […]

K. pneumoniae = type: cell-based, Klebsiella pneumoniae; conditions: for Minimal bactericidal concentration: K. pneumoniae ATCC 13884
Experimental: as §1, §4

P. aeruginosa = type: cell-based, Pseudomonas aeruginosa
Experimental: as §1
(§5) Clinical isolates of Pseudomonas aeruginosa (NHRI-01, NHRI-02 AND NHRI-04) were obtained through the program of Taiwan Surveillance of Antimicrobial Resistance, National Health Research Institutes, Taiwan, Acinetobacter baumannii (ATCC 17989, ATCC 17978 CR, ATCC19606, ATCC 19606 CR, TCGH 45530 AND TCGH 46709) were obtained from Tzu-Chi Buddhist General Hospital in Taiwan, and clinical isolates (TCGH 1 45530 AND TCGH 46709) were identified using the Vitek system (Biomerieux Vitek, Inc., MO, USA). A. baumannii is defined as multidrug-resistant when the organism is resistant to piperacillin, piperacillin-tazobactam, ampicillin/sulbactam, imipenem, ceftazidime, gentamicin, amikacin, tetracycline, chloramphenicol, ciprofloxacin, and cotrimoxazole. Susceptibility to colistin was determined using the broth-dilution method, in accordance with the guidelines of the Clinical and Laboratory Standards Institute.
as §2, with “buffer.” for “buffer. Fifty microliter (μl) of bacteria was mixed with fifty μl of peptides at varying concentrations followed by incubation at 37° C. for 3 hours without shaking.”

Vero and HEK293 cells = test: CFSE cell proliferation assay; type: cell-based, human, monkey; conditions: 5, 25 and 100 μM for 1 hour, day 3 vs day 1
Experimental: as §3
To set up CFSE cell proliferation assay, 293 cells (human kidney origin) and Vero cells (monkey kidney origin) were resuspended in PBS to a final concentration of 10^6 cells/ml before incubation with 10 μM CFSE dye (CELLTRACE™ CFSE cell proliferation kit, INVITROGEN™) at 37° C. for 10 min. To quench the staining, ice-old culture media were then added and incubated on ice for 5 min. […] Forty-eight hours later, cells were harvested and analyzed by flow cytometry (FACSCanto, BD Bioscience).

C. albicans = type: cell-based, Candida albicans
Experimental: as §1, §2

A. baumannii = type: cell-based, Acinetobacter baumannii
Description: as §5
All peptides were purchased from Yao-Hong Biotechnology Inc. (Taipei, Taiwan). Vendors provided data of peptide characterizations, including HPLC and Mass. Antimicrobial activity was determined as described with some modifications as detailed below. […]

CC(C)[C@H](NC(=O)[C@@H](NC(=O)[C@@H](N)[C@@H](C)O)C(C)C)C(=O)N[C@@H](CCCNC(=N)N)C(=O)N[C@@H](CCCNC(=N)N)C(=O)N[C@@H](CCCNC(=N)N)C(=O)NCC(=O)N[C@@H](CCCNC(=N)N)C(=O)N[C@@H](COP(=O)(O)O)C(=O)N1CCC[C@H]1C(=O)N[C@@H](CCCNC(=N)N)C(=O)N[C@@H](CCCNC(=N)N)C(=O)N[C@@H](CCCNC(=N)N)C(=O)N[C@H](C(=O)N1CCC[C@H]1C(=O)N[C@@H](COP(=O)(O)O)C(=O)N1CCC[C@H]1C(=O)N[C@@H](CCCNC(=N)N)C(=O)N[C@@H](CCCNC(=N)N)C(=O)N[C@@H](CCCNC(=N)N)C(=O)N[C@@H](CCCNC(=N)N)C(=O)N[C@@H](CO)C(=O)N[C@@H](CCC(N)=O)C(=O)N[C@@H](COP(=O)(O)O)C(=O)N1CCC[C@H]1C(=O)N[C@@H](CCCNC(=N)N)C(=O)N[C@@H](CCCNC(=N)N)C(=O)N[C@@H](CCCNC(=N)N)C(=O)N[C@@H](CCCNC(=N)N)C(=O)N[C@@H](CO)C(=O)N[C@@H](CCC(N)=O)C(=O)N[C@@H](CO)C(=O)N[C@@H](CCCNC(=N)N)C(=O)N[C@@H](CCC(=O)O)C(=O)N[C@@H](CO)C(=O)N[C@@H](CCC(N)=O)C(=O)N[C@@H](CS)C(=O)O)[C@@H](C)O [HBc155p162p170p]
MBC [1]: > 32 µM

CC[C@H](C)[C@H](NC(=O)CN)C(=O)NCC(=O)N[C@@H](C)C(=O)N[C@H](C(=O)N[C@@H](CC(C)C)C(=O)N[C@@H](CCCCN)C(=O)N[C@H](C(=O)N[C@@H](CC(C)C)C(=O)N[C@H](C(=O)N[C@H](C(=O)NCC(=O)N[C@@H](CC(C)C)C(=O)N1CCC[C@H]1C(=O)N[C@@H](C)C(=O)N[C@@H](CC(C)C)C(=O)N[C@H](C(=O)N[C@@H](CO)C(=O)N[C@@H](Cc1c[nH]c2ccccc12)C(=O)N[C@H](C(=O)N[C@@H](CCCCN)C(=O)N[C@@H](CCCNC(=N)N)C(=O)N[C@@H](CCCCN)C(=O)N[C@@H](CCCNC(=N)N)C(=O)N[C@@H](CCC(N)=O)C(=O)N[C@@H](CCC(N)=O)C(N)=O)[C@@H](C)CC)[C@@H](C)CC)[C@@H](C)O)[C@@H](C)O)C(C)C)C(C)C [melittin, reference compound]
effect on cell viability [2]: strong toxicity
viability of cells ([2]; low dose (3.125 μM), 1 hour): significantly decreased

TVVRRRGRSPRRRTPSPRRRRSQSPRRRRSQSRESQC [HBc147-183]
hemolysis (human red blood cells): no detectable hemolysis
effect on cell viability [2]: no detectable effect
cytotoxicity ([2]; 100 μM, 1 hour): only a low level of cytotoxicity
Minimal bactericidal concentration (E. coli): 4 µM
MBC (E. coli; E. coli, strain not given): around 4 μM
Minimal bactericidal concentration (S. aureus): 4 µM
MBC (S. aureus; S. aureus, strain not given): around 4 μM
in vivo toxicity (ICR mice; 20 mg/kg i.p.): no apparent in vivo toxicity
survival after peptide injection (ICR mice; 10 and 20 mg/kg intraperitoneally, 7 days): All mice were alive
MBC (K. pneumoniae; K. pneumonia, strain not given): lower than 4 μM
Minimal bactericidal concentration (K. pneumoniae): 2 µM
MBC (P. aeruginosa; colistin-resistant P. aeruginosa): > 16 µM
effect on cell proliferation (Vero and HEK293 cells): no significant effect
MBC (C. albicans): ~8 µM
MBC (A. baumannii): 0.5 to 1 µM
MBC (A. baumannii; colistin-resistant A. baumannii): 0.5 to 1 µM

TVIRRRGGARASRSPRRRTPSPRRRRSQSPRRRRSQSPSANC [wHBc ARD]
Minimal bactericidal concentration (E. coli): 4 µM
Minimal bactericidal concentration (S. aureus): 8 µM
Minimal bactericidal concentration (K. pneumoniae): 2 µM
Minimal bactericidal concentration (P. aeruginosa; P. aeruginosa ATCC 9027): 2 µM
Minimal bactericidal concentration (P. aeruginosa; P. aeruginosa ATCC 27853): 2 µM
